Experimental findings from patent publication US20250206732A1, “COMPOUNDS AND METHODS FOR THE TARGETED DEGRADATION OF KRAS” (Arvinas Operations, Inc., priority 2022, published 2025) are described below.

Some results are limits rather than exact numbers.

For the assay, the target named is T1, AsPC-1 HiBiT-KRASG12D (Homo sapiens, UniProt P01116, G12D).
T1 construct: insert the HiBiT tag onto the N-terminus of one or more of the endogenous KRAS alleles; endogenous in cells; host or cells: AsPC-1 (ATCC CRL-1682), CRISPR-Cas9 knock-in clone, one tagged allele
T1 sequence (P01116 1-188 isoform P01116-2 G12D): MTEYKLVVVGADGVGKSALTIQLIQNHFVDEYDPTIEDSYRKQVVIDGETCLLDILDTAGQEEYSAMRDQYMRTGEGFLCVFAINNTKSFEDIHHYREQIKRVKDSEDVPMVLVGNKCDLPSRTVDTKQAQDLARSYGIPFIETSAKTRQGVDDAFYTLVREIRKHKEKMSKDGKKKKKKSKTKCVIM
The assay can be described thus: HiBiT degradation assay (G12D), AsPC-1 HiBiT-KRASG12D cells. Format: cell-based. To be noted: 24 hours treatment; for Dmax: ASPC1, AsPC-1 HiBiT-KRASG12D cells; for Dmax / AsPC-1 HiBiT-KRASG12D DMax: maximum degradation observed; for DC50 / AsPC-1 HiBiT-KRASG12D DMax: AsPC-1 HiBiT-KRASG12D cells; for DC50: HiBiT luminescence. The method, boiled down:
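Steps: treat HiBiT-KRASG12D AsPC-1 cells with compound for 24 hours; add alamar blue to 1× and incubate 4 hours to assess viability; wash with PBS; add HiBiT lytic detection reagent, incubate 45 minutes at room temperature; read luminescence. Viability fluorescence is normalized to DMSO wells.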

In turn, `CCc1cccc2cc(O)cc(-c3cc4nc(OC[C@]56CCCN5[C@H](COC(=O)N5CCN(c7cc(C(C(=O)N8C[C@H](O)C[C@H]8C(=O)N[C@@H](C)c8ccc(-c9scnc9C)cc8)C(C)C)on7)CC5)CC6)nc(N5CC6CCC(C5)N6)c4cn3)c12` (single isomer, unassigned) [Compound 266] returned a Dmax of 80 to 100% and a half-maximal degradation concentration (DC50) below 600 nM.
The corresponding values for `CCc1cccc2cc(O)cc(-c3ccc4c(N5CC6CCC(C5)N6)nc(OC[C@]56CCCN5[C@H](COC(=O)N5CCN(c7cc(C(C(=O)N8C[C@H](O)C[C@H]8C(=O)N[C@@H](C)c8ccc(-c9scnc9C)cc8)C(C)C)on7)CC5)CC6)nc4c3F)c12` (single isomer, unassigned) [Compound 267] are 80 to 100% and below 600 nM.
The corresponding values for `C#Cc1c(F)ccc2cccc(-c3ncc4c(N5CC6CCC(C5)N6)nc(OC[C@]56CCCN5[C@H](COC(=O)N5CCN(c7cc(C(C(=O)N8C[C@H](O)C[C@H]8C(=O)N[C@@H](C)c8ccc(-c9scnc9C)cc8)C(C)C)on7)CC5)CC6)nc4c3F)c12` (single isomer, unassigned) [Compound 270, [(3S,7aR)-7a-{[(4-{3,8-diazabicyclo[3.2.1]octan-3-yl}-7-(8-ethynyl-7-fluoronaphthalen-1-yl)-8-fluoropyrido[4,3-d]pyrimidin-2-yl)oxy]methyl}-hexahydro-1H-pyrrolizin-3-yl]methyl 4-{5-[(2R*)-1-[(2S,4R)-4-hydroxy-2-{[(1S)-1-[4-(4-methyl-1,3-thiazol-5-yl)phenyl]ethyl]carbamoyl}pyrrolidin-1-yl]-3-methyl-1-oxobutan-2-yl]-1,2-oxazol-3-yl}piperazine-1-carboxylate] are 80 to 100% and below 600 nM.
The matching figures for `CCc1cccc2cc(O)cc(-c3ncc4c(N5CC6CCC(C5)N6)nc(OCCN5CCC(C6CN(c7cc([C@H](C(=O)N8C[C@H](O)C[C@H]8C(=O)N[C@@H](C)c8ccc(-c9scnc9C)cc8)C(C)C)on7)C6)CC5)nc4c3F)c12` (single isomer, unassigned) [Compound 275]: 80 to 100% and below 600 nM.
Consider `CCc1cccc2cc(O)cc(-c3ncc4c(N5CC6CCC(C5)N6)nc(OCCN5CCC(C6CN(c7cc([C@@H](C(=O)N8C[C@H](O)C[C@H]8C(=O)N[C@@H](C)c8ccc(-c9scnc9C)cc8)C(C)C)on7)C6)CC5)nc4c3F)c12` (single isomer, unassigned) [Compound 277], for which the greatest degradation seen (Dmax) lay in the range of 20 to 60% and the half-maximal degradation concentration (DC50) was 1000 to 3000 nM.
The corresponding values for `C#Cc1c(F)ccc2cc(O)cc(-c3ncc4c(N5CC6CCC(C5)N6)nc(OCCN5CCC(CC6CN(c7cc([C@H](C(=O)N8C[C@H](O)C[C@H]8C(=O)N[C@@H](C)c8ccc(-c9scnc9C)cc8)C(C)C)on7)C6)CC5)nc4c3F)c12` (single isomer, unassigned) [Compound 288] are 80 to 100% and below 600 nM.
The corresponding values for `C#Cc1c(F)ccc2cc(O)cc(-c3ncc4c(N5CC6CCC(C5)N6)nc(OCCN5CCC(CC6CCN(c7cc([C@@H](C(=O)N8C[C@H](O)C[C@H]8C(=O)N[C@@H](C)c8ccc(-c9scnc9C)cc8)C(C)C)on7)CC6)CC5)nc4c3F)c12` (single isomer, unassigned) [Compound 308] are 60 to 80% and below 600 nM.
Take `CCc1cccc2cc(O)cc(-c3ncc4c(N5CC6CCC(C5)N6)nc(OCCN5CCC(CC6CCN(c7cc(C(C(=O)N8C[C@H](O)C[C@H]8C(=O)N[C@@H](C)c8ccc(-c9scnc9C)cc8)C(C)C)on7)CC6)CC5)nc4c3F)c12` (single isomer, unassigned) [Compound 320]: the 50% degradation concentration (DC50) was below 600 nM and the “AsPC-1 HiBiT-KRASG12D DMax” value is given as “A (80% < A ≤ 100%)”.
The corresponding values for `CCc1cccc2cc(O)cc(-c3ncc4c(N5CC6CCC(C5)N6)nc(OCCN5CCC(CC6CCN(c7cc(C(C(=O)N8C[C@H](O)C[C@H]8C(=O)N[C@@H](C)c8ccc(-c9scnc9C)cc8)C(C)C)on7)CC6)CC5)nc4c3F)c12` (single isomer, unassigned) [Compound 321] are 600 to 1000 nM and “C (20% <C ≤ 60%)”.
`Cc1ncsc1-c1ccc([C@H](C)NC(=O)[C@@H]2C[C@@H](O)CN2C(=O)[C@@H](c2cc(N3CCN(C(=O)OC[C@H]4CC[C@@]5(COc6nc(N7CC8CCC(C7)N8)c7cc(Cl)c(-c8cc(O)cc9ccccc89)c(F)c7n6)CCCN45)CC3)no2)C(C)C)cc1` (single isomer, unassigned) [Compound 329] had a Dmax of 80 to 100% and a DC50 below 600 nM.
The matching figures for `C#Cc1c(F)ccc2cccc(-c3ncc4c(N5CC6CCC(C5)N6)nc(OC[C@]56CCCN5[C@@H](COC(=O)N5CCN(c7cc([C@H](C(=O)N8C[C@H](O)C[C@H]8C(=O)N[C@@H](C)c8ccc(-c9scnc9C)cc8)C(C)C)on7)CC5)CC6)nc4c3F)c12` (single isomer, unassigned) [Compound 333]: 80 to 100% and below 600 nM.
The matching figures for `CCc1cccc2cc(O)cc(-c3ncc4c(N5CCCCCC5)nc(OC[C@@]56CCCN5[C@H](COc5cc([C@H](C(=O)N7C[C@H](O)C[C@H]7C(=O)N[C@@H](C)c7ccc(-c8scnc8C)cc7)C(C)C)on5)CC6)nc4c3F)c12` (single isomer, unassigned) [Compound 338]: 80 to 100% and below 600 nM.
In the case of `CCc1cccc2cc(O)cc(-c3ncc4c(N5CCCCCC5)nc(OC[C@@]56CCCN5[C@H](COc5cc([C@@H](C(=O)N7C[C@H](O)C[C@H]7C(=O)N[C@@H](C)c7ccc(-c8scnc8C)cc7)C(C)C)on5)CC6)nc4c3F)c12` (single isomer, unassigned) [Compound 339], the DC50 is above 3000 nM.
On the same count and under the same terms, to `CCc1cccc2cc(O)cc(-c3ncc4c(N5CC6CCC(C5)N6)nc(OC[C@@]56CCCN5[C@H](COC(=O)N5CCN(c7cc([C@H](C(=O)N8C[C@H](O)C[C@H]8C(=O)N[C@@H](C)c8ccc(-c9scnc9C)cc8)C(C)C)on7)CC5)CC6)nc4c3F)c12` (stereo in doubt) [Compound 7] belongs below 600 nM.
Compound `CCc1cccc2cc(O)cc(-c3ncc4c(N5CC6CCC(C5)N6)nc(OC[C@@]56CCCN5[C@H](COC(=O)N5C[C@@H](C)N(c7cc([C@H](C(=O)N8C[C@H](O)C[C@H]8C(=O)N[C@@H](C)c8ccc(-c9scnc9C)cc8)C(C)C)on7)C[C@@H]5C)CC6)nc4c3F)c12` (stereo in doubt) [Compound 299, [(3S,8R)-8-[[4-(3,8-diazabicyclo[3.2.1]octan-3-yl)-7-(8-ethyl-3-hydroxy-1-naphthyl)-8-fluoro-pyrido[4,3-d]pyrimidin-2-yl]oxymethyl]-1,2,3,5,6,7-hexahydropyrrolizin-3-yl]methyl (2S,5R)-4-[5-[(1R)-1-[(2S,4R)-4-hydroxy-2-[[(1S)-1-[4-(4-methylthiazol-5-yl)phenyl]ethyl]carbamoyl]pyrrolidine-1-carbonyl]-2-methyl-propyl]isoxazol-3-yl]-2,5-dimethyl-piperazine-1-carboxylate] showed a Dmax of 80 to 100% and a 50% degradation concentration (DC50) below 600 nM.
For `Cc1ncsc1-c1ccc([C@H](C)NC(=O)[C@@H]2C[C@@H](O)CN2C(=O)[C@@H](c2cc(OCC3CCN(CCOc4nc(N5CC6CCC(C5)N6)c5cnc(-c6cc(O)cc(Cl)c6C(F)(F)F)c(F)c5n4)CC3)no2)C(C)C)cc1` [Compound 24, (2S,4R)-1-[(2R)-2-[3-({1-[2-({7-[3-chloro-5-hydroxy-2-(trifluoromethyl)phenyl]-4-{3,8-diazabicyclo[3.2.1]octan-3-yl}-8-fluoropyrido[4,3-d]pyrimidin-2-yl}oxy)ethyl]piperidin-4-yl}methoxy)-1,2-oxazol-5-yl]-3-methylbutanoyl]-4-hydroxy-N-[(1S)-1-[4-(4-methyl-1,3-thiazol-5-yl)phenyl]ethyl]pyrrolidine-2-carboxamide], the Dmax was 80 to 100% and the DC50 was below 600 nM.
The corresponding values for `CCc1cccc2cc(O)cc(-c3ncc4c(N5CC6CCC(C5)N6)nc(O[C@H](C)CN5CCC6(CC5)CN(c5cc([C@H](C(=O)N7C[C@H](O)C[C@H]7C(=O)N[C@@H](C)c7ccc(-c8scnc8C)cc7)C(C)C)on5)C6)nc4c3F)c12` [Compound 25, (2S,4R)-1-[(2R)-2-(3-{7-[(2R)-2-[(4-{3,8-diazabicyclo[3.2.1]octan-3-yl}-7-(8-ethyl-3-hydroxynaphthalen-1-yl)-8-fluoropyrido[4,3-d]pyrimidin-2-yl)oxy]propyl]-2,7-diazaspiro[3.5]nonan-2-yl}-1,2-oxazol-5-yl)-3-methylbutanoyl]-4-hydroxy-N-[(1S)-1-[4-(4-methyl-1,3-thiazol-5-yl)phenyl]ethyl]pyrrolidine-2-carboxamide] are 20 to 60% and 600 to 1000 nM.
Consider `CCc1cccc2cc(O)cc(-c3ncc4c(N5CC6CCC(C5)N6)nc(OC[C@]56CCCN5[C@@H](COc5cc([C@H](C(=O)N7C[C@H](O)C[C@H]7C(=O)N[C@@H](C)c7ccc(-c8scnc8C)cc7)C(C)C)on5)CC6)nc4c3F)c12` [Compound 27, (2S,4R)-1-[(2R)-2-(3-{[(3R,7aR)-7a-{[(4-{3,8-diazabicyclo[3.2.1]octan-3-yl}-7-(8-ethyl-3-hydroxynaphthalen-1-yl)-8-fluoropyrido[4,3-d]pyrimidin-2-yl)oxy]methyl}-hexahydro-1H-pyrrolizin-3-yl]methoxy}-1,2-oxazol-5-yl)-3-methylbutanoyl]-4-hydroxy-N-[(1S)-1-[4-(4-methyl-1,3-thiazol-5-yl)phenyl]ethyl]pyrrolidine-2-carboxamide], for which the DC50 is below 600 nM.

By Dmax is commonly meant the largest share of the target that was removed. Higher therefore signals deep degradation. Broadly, the DC50 is the concentration at which degradation of the target reaches its halfway point. A low value points to a more potent degrader.
